Data taken from US12102087B2 (priority 2012, dated 2024).

Experiments:
Type in all cases: in vivo
Venturia inaequalis = experiment: Venturia test (apples)/preventive; conditions: for pest or weed control at 0.5 ppm: application rate 0.5 ppm a.i.
Source text: (§1) A synergistic effect of fungicides is always present when the fungicidal activity of the active compound combinations exceeds the total of the activities of the active compounds when applied individually. The expected activity for a given combination of two active compounds can be calculated as follows (cf. Colby, S. R., “Calculating Synergistic and Antagonistic Responses of Herbicide Combinations”, Weeds 1967, 15, 20-22):
(§2) If • X is the efficacy when active compound A is applied at an application rate of m ppm (or g/ha), • Y is the efficacy when active compound B is applied at an application rate of n ppm (or g/ha), • E is the efficacy when the active compounds A and B are applied at application rates of m and n ppm (or g/ha), respectively, and
Venturia test (apples)/preventive • Solvent: 24.5 parts by weight of acetone • 24.5 parts by weight of dimethylacetamide • Emulsifier: 1 part by weight of alkylaryl polyglycol ether
(§3) To produce a suitable preparation of active compound, 1 part by weight of active compound is mixed with the stated amounts of solvent and emulsifier, and the concentrate is diluted with water to the desired concentration.
To test for preventive activity, young plants are sprayed with the preparation of active compound at the stated rate of application. After the spray coating has dried on, the plants are inoculated with an aqueous conidia suspension of the causal agent of apple scab (Venturia inaequalis) and then remain for 1 day in an incubation cabinet at approximately 20° C. and a relative atmospheric humidity of 100%.
The plants are then placed in a greenhouse at approximately 21° C. and a relative atmospheric humidity of approximately 90%.
The test is evaluated 10 days after the inoculation. 0% means an efficacy which corresponds to that of the untreated control, while an efficacy of 100% means that no disease is observed.

Sphaerotheca fuliginea = experiment: Sphaerotheca test (cucumbers)/preventive
Source text: as §1, §2
Sphaerotheca Test (Cucumbers)/Preventive • Solvent: 24.5 parts by weight of acetone • 24.5 parts by weight of dimethylacetamide • Emulsifier: 1 part by weight of alkylaryl polyglycol ether
as §3
To test for preventive activity, young plants are sprayed with the preparation of active compound at the stated rate of application. After the spray coating has dried on, the plants are inoculated with an aqueous spore suspension of Sphaerotheca fuliginea. The plants are then placed in a greenhouse at approximately 23° C. and a relative atmospheric humidity of approximately 70%.
The test is evaluated 7 days after the inoculation. 0% means an efficacy which corresponds to that of the untreated control, while an efficacy of 100% means that no disease is observed.

Phytophthora infestans = experiment: whole plant or invertebrate; conditions: for pest or weed control at 0.2 ppm: application rate 0.2 ppm a.i.
[1] = Table 6, application rate 2.5 ppm a.i.
[2] = Phytophthora infestans, 72 h, read-out: Efficacy in % found, Table 3, application rate 2.5 ppm a.i.
[3] = Venturia inaequalis, 240 h, Table 11, read-out: Efficacy in % found
[4] = Table 7, application rate 1 ppm a.i.
[5] = Table 5, application rate 2.5 ppm a.i.
[6] = Phytophthora infestans, 72 h, read-out: Efficacy in % found, Table 4
[7] = Table 3, application rate 1.25 ppm a.i.
[8] = Table 3, application rate 2.5 ppm a.i.
[9] = Table 3, application rate 5 ppm a.i.

CC(C)(C)C(O)(CCc1ccc(Cl)cc1)Cn1cncn1 (stereo not shown) [1.47, tebuconazole]
pest or weed control at 2 ppm (Venturia inaequalis; Venturia inaequalis, 240 h, Table 11, application rate 2 ppm a.i., read-out: Efficacy in % found): 11%

metiram [5.25]
Efficacy in % found (Venturia inaequalis; Table 13, application rate 100 ppm a.i.): 55% | Efficacy in % found (Sphaerotheca fuliginea; Table 9, application rate 50 ppm a.i.): 29% | Efficacy in % found (Phytophthora infestans; [1]): 15%

COc1ccc(C(=CC(=O)N2CCOCC2)c2ccc(Cl)cc2)cc1OC [9.2, dimethomorph]
pest or weed control at 1 ppm (Phytophthora infestans; Phytophthora infestans, 72 h, read-out: Efficacy in % found, Table 4, application rate 1 ppm a.i.): 20%

O=[N+]([O-])c1cc(C(F)(F)F)c(Cl)c([N+](=O)[O-])c1Nc1ncc(C(F)(F)F)cc1Cl [14.4, fluazinam]
pest or weed control at 2.5 ppm (Phytophthora infestans; [2]): 0%

COC(=O)N(OC)c1ccccc1COc1ccn(-c2ccc(Cl)cc2)n1 [3.17, pyraclostrobin]
pest or weed control at 0.5 ppm (Venturia inaequalis; [3]): 19%

Cn1cc(C(=O)Nc2ccc(F)cc2-c2ccc(Cl)c(Cl)c2)c(C(F)F)n1 [2.1, bixafen]
Efficacy in % found (Venturia inaequalis; Table 10, application rate 1 ppm a.i.): 84% | Efficacy in % found (Sphaerotheca fuliginea; [4]): 10%

CC(C)C1C2CCC1c1c(NC(=O)c3cn(C)nc3C(F)F)cccc12 (stereo not shown) [2.12, isopyrazam]
Efficacy in % found (Sphaerotheca fuliginea; [4]): 19% | Efficacy in % found (Sphaerotheca fuliginea; Table 7, application rate 2 ppm a.i.): 57% | Efficacy in % found (Phytophthora infestans; [5]): 0%

Cc1ccc(-c2c(Cl)nc(C#N)n2S(=O)(=O)N(C)C)cc1 [3.4, cyazofamid]
pest or weed control at 0.2 ppm (Phytophthora infestans; [6]): 8%

CCNC(=O)NC(=O)/C(C#N)=N/OC [15.9, cymoxanil]
pest or weed control at 2.5 ppm (Phytophthora infestans; [2]): 0% | pest or weed control at 5 ppm (Phytophthora infestans; Phytophthora infestans, 72 h, read-out: Efficacy in % found, Table 3, application rate 5 ppm a.i.): 0%

CSC1=N[C@@](C)(c2ccccc2)C(=O)N1Nc1ccccc1 [3.10, fenamidone]
pest or weed control at 0.5 ppm (Phytophthora infestans; Phytophthora infestans, 72 h, read-out: Efficacy in % found, Table 4, application rate 0.5 ppm a.i.): 3%

metalaxyl-M (mefenoxam) [12.10]
Efficacy in % found (Phytophthora infestans; [7]): 10% | Efficacy in % found (Phytophthora infestans; [8]): 36%

CO/C=C(/C(=O)OC)c1ccccc1Oc1cc(Oc2ccccc2C#N)ncn1 [3.3, azoxystrobin]
Efficacy in % found (Venturia inaequalis; Table 11, application rate 0.25 ppm a.i.): 38%

OP(O)O [15.41, phosphorous acid]
Efficacy in % found (Phytophthora infestans; [8]): 0% | Efficacy in % found (Phytophthora infestans; [9]): 13%

CCCCCOC(=O)Nc1cccc(CON=C(c2ccccc2)c2nnnn2C)n1 [15.90, pentyl {6-[({[(1-methyl-1H-tetrazol-5-yl)(phenyl)methylidene]amino}oxy)methyl]pyridin-2-yl}carbamate]
pest or weed control at 0.2 ppm (Phytophthora infestans; [6]): 10%

O=C(Nc1ccccc1-c1ccc(Cl)cc1)c1cccnc1Cl [2.2, boscalid]
pest or weed control at 20 ppm (Venturia inaequalis; Venturia inaequalis, 240 h, Table 11, application rate 20 ppm a.i., read-out: Efficacy in % found): 85% | Efficacy in % found (Sphaerotheca fuliginea; Table 8, application rate 20 ppm a.i.): 62% | Efficacy in % found (Sphaerotheca fuliginea; Table 8, application rate 40 ppm a.i.): 86%

OC(Cc1ccccc1Cl)(Cn1nc[nH]c1=S)C1(Cl)CC1 (stereo not shown) [1.41, prothioconazole]
Efficacy in % found (Sphaerotheca fuliginea; Table 8, application rate 2 ppm a.i.): 19%

fosetyl-aluminium [15.24]
Efficacy in % found (Phytophthora infestans; [8]): 0% | Efficacy in % found (Phytophthora infestans; [9]): 0%

CCCCCCCCc1c(CC)nc2ncnn2c1N [3.1, ametoctradin]
Efficacy in % found (Phytophthora infestans; [7]): 15% | Efficacy in % found (Phytophthora infestans; [8]): 22%

CON=C(C(=O)OC)c1ccccc1CON=C(C)c1cccc(C(F)(F)F)c1 [3.22, trifloxystrobin]
pest or weed control at 0.5 ppm (Venturia inaequalis; [3]): 77%

Cc1ccc(C(C)NC(=O)[C@@H](NC(=O)OC(C)C)C(C)C)cc1 (stereo partly shown) [9.4, iprovalicarb]
Efficacy in % found (Phytophthora infestans; Table 4, application rate 2 ppm a.i.): 9%

propamocarb hydrochloride [10.10]
Efficacy in % found (Sphaerotheca fuliginea; Table 9, application rate 200 ppm a.i.): 0% | Efficacy in % found (Sphaerotheca fuliginea; Table 9, application rate 400 ppm a.i.): 0% | Efficacy in % found (Phytophthora infestans; [1]): 0%

Cn1cc(C(=O)Nc2cccc3c2[C@@H]2CC[C@H]3C2=C(Cl)Cl)c(C(F)F)n1 (racemic) [2.29, benzovindiflupyr]
Efficacy in % found (Sphaerotheca fuliginea; Table 7, application rate 0.5 ppm a.i.): 0% | Efficacy in % found (Phytophthora infestans; [5]): 0%

CO/N=C(/C1=NOCCO1)c1ccccc1Oc1ncnc(Oc2ccccc2Cl)c1F [3.12, fluoxastrobin]
pest or weed control at 0.5 ppm (Venturia inaequalis; [3]): 44%

Cc1c(Br)c2ccc(F)cc2n1S(=O)(=O)c1ncn(S(=O)(=O)N(C)C)n1 [3.2, amisulbrom]
Efficacy in % found (Phytophthora infestans; Table 4, application rate 1 ppm a.i.): 19%

CC(C)[C@H](NC(=O)O)C(=O)N[C@H](C)c1nc2ccc(F)cc2s1 [9.1, benthiavalicarb]
Efficacy in % found (Phytophthora infestans; Table 4, application rate 0.5 ppm a.i.): 52%
